Test results: ChEMBL document CHEMBL1158898, “New flavans, spirostanol sapogenins, and a pregnane genin from Tupistra chinensis and their cytotoxicity” (2003)

Tests used:
[1] = Cytotoxicity against human HONE1 cells at 50 uM; type: functional
NUGC = assay: Cytotoxicity against human NUGC cells at 50 uM; type: functional

Structure (SMILES): C=C1CC[C@@]2(OC1)O[C@H]1C[C@H]3[C@@H]4CC[C@]5(O)[C@@H](O)[C@@H](O)[C@@H](O)[C@@H](O)[C@]5(C)[C@H]4CC[C@]3(C)[C@H]1[C@@H]2C
- inhibition at 50 µM [1]: 100%
- inhibition at 50 µM (NUGC): 100%

Structure (SMILES): C=C1CC[C@@]2(OC1)O[C@H]1C[C@H]3[C@@H]4CC=C5C[C@H](O)C[C@@H](O)[C@]5(C)[C@H]4CC[C@]3(C)[C@H]1[C@@H]2C
- inhibition at 50 µM [1]: 45%

Structure (SMILES): C=CCc1ccc(O)c(O)c1 [HYDROXYCHAVICOL]
- inhibition at 50 µM (NUGC): 96%

Structure (SMILES): C=C1CC[C@@]2(OC1)O[C@H]1C[C@H]3[C@@H]4CC[C@]5(O)[C@@H](O)[C@@H](O)C[C@@H](O)[C@]5(C)[C@H]4CC[C@]3(C)[C@H]1[C@@H]2C [RANMOGENIN A]
- inhibition at 50 µM (NUGC): 80%

Structure (SMILES): C=C1CC[C@@]2(OC1)O[C@H]1C[C@H]3[C@@H]4CC[C@]5(O)C[C@@H](OC(C)=O)[C@@H](OC(C)=O)[C@@H](OC(C)=O)[C@]5(C)[C@H]4CC[C@]3(C)[C@H]1[C@@H]2C [TUPICHIGENIN AA]
- inhibition at 50 µM (NUGC): 50%

Structure (SMILES): C=C1CC[C@@]2(OC1)O[C@H]1C[C@H]3[C@@H]4CC[C@]5(O)C[C@@H](O)[C@@H](OC(C)=O)[C@@H](OC(C)=O)[C@]5(C)[C@H]4CC[C@]3(C)[C@H]1[C@@H]2C [TUPICHIGENIN AC]
- inhibition at 50 µM (NUGC): 40%

Structure (SMILES): C=C1CC[C@@]2(OC1)O[C@H]1C[C@H]3[C@@H]4CC[C@]5(O)C[C@@H](O)[C@@H](O)[C@@H](O)[C@]5(C)[C@H]4CC[C@]3(C)[C@H]1[C@@H]2C [TUPICHIGENIN A]
- inhibition at 50 µM (NUGC): 42%

Structure (SMILES): COc1ccc2c(c1C)O[C@H](c1ccc(O)cc1)[C@H](O)C2 [TUPICHINOL A]
- inhibition at 50 µM (NUGC): 30%

Structure (SMILES): Oc1ccc([C@H]2CCc3ccc(O)cc3O2)cc1 [TUPICHINOL C]
- inhibition at 50 µM [1]: 50%

Structure (SMILES): CC(=O)C1=CC[C@H]2[C@@H]3CC=C4C[C@H](O)C[C@@H](O)[C@]4(C)[C@H]3CC[C@]12C [TUPIPREGNENOLONE]
- inhibition at 50 µM (NUGC): 25%
